Here are results for 2 molecules from patent US20240132511A1, “TREATMENTS OF PRADER-WILLI SYNDROME” (Neuren Pharmaceuticals Limited, priority 2021, published 2024).

With `C[C@@]12CCCN1C(=O)C1(CCCCC1)NC2=O` [Cyclic cyclohexyl-G-2-MeP, (8aS)-Methyl-spiro[cyclohexane-1,3(4H)-tetrahydropyrrolo[1,2-a]pyrazine]-1,4(2H)-dione], the melting point (in general, the temperature of the solid-liquid transition) is 174 to 177 °C.

The molecule `C[C@@]12CCCN1C(=O)C1(CCCC1)NC2=O` [Cyclic cyclopentyl-G-2-MeP, (8aS)-Methyl-spiro[cyclopentane-1,3(4H)-tetrahydropyrrolo[1,2-a]pyrazine]-1,4(2H)-dione] came in with a melting point of 160 to 163 °C.
